In the supplement of paper PMC6461962:

Key:
[1] = test system: Pseudomonas fluorescens FW300-N2E2
Summary of the method: (§1)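 Washed cells (80 µL, final OD600 0.02) were dispensed onto 384-well dilution series of inorganic ion salts or equimolar nitrilotriacetic acid complexes. Plates kept aerobically were shaken at 700 rpm at 30 °C, anaerobic ones stayed still, and OD600 readings at 24 h (48 h for R2A strain comparisons) were scaled between water and growth-blocking antibiotic controls, ignoring wells with precipitate. IC50 values are drc R package fits of at least two biological replicate curves.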

[2] = test system: Rhodanobacter sp. FW104-10B01
Summary of the method: as §1

[3] = medium / electron acceptor: N2E2 Glucose/aerobic
[4] = medium / electron acceptor: N2E2 Glucose/aerobic 0.25xMinerals
[5] = medium / electron acceptor: N2E2 Glucose/aerobic (2)
[6] = medium / electron acceptor: N2E2 KB/aerobic
[7] = medium / electron acceptor: N2E2 LB/aerobic
[8] = medium / electron acceptor: N2E2 LB/aerobic (2)
[9] = medium / electron acceptor: N2E2 LB/nitrate
[10] = medium / electron acceptor: N2E2 Lactate/aerobic
[11] = medium / electron acceptor: N2E2 R2A/aerobic
[12] = medium / electron acceptor: 10B01 R2A/aerobic
[13] = medium / electron acceptor: 10B01 R2A/nitrate

| Structure (SMILES) | IC50 growth inhibition [1, 3] [mM] | IC50 growth inhibition [1, 4] [mM] | IC50 growth inhibition [1, 5] [mM] | IC50 growth inhibition [1, 6] [mM] | IC50 growth inhibition [1, 7] [mM] | IC50 growth inhibition [1, 8] [mM] | IC50 growth inhibition [1, 9] [mM] | IC50 growth inhibition [1, 10] [mM] | IC50 growth inhibition [1, 11] [mM] | IC50 growth inhibition [2, 12] [mM] | IC50 growth inhibition [2, 13] [mM] |
| --- | --- | --- | --- | --- | --- | --- | --- | --- | --- | --- | --- |
| O=C(O)CN(CC(=O)O)CC(=O)O [Nitrilotriacetic acid] | 0.345 | 21.4 | 6.51 | 15.3 | 54.7 | 111 | 6.75 | < 0.122 | 9.21 | > 250 | > 250 |
| [Cl][Pd][Cl] [Palladium(II) chloride] | < 0.00244 | < 0.00244 | < 0.00244 | 3.73 | > 5 | 3.78 | > 5 | < 0.00244 | 0.249 | > 5 | > 5 |
| [Cl-].[K+] [Potassium Chloride] | > 500 | > 500 | > 500 | > 500 | > 500 | > 500 | 458 | > 500 | > 500 | > 500 | 381 |
| [K+].[K+].[O]=[Cr](=[O])([O-])[O-] [Potassium chromate] | < 0.244 | < 0.244 | < 0.244 | < 0.244 | < 0.244 | < 0.244 | 31 | < 0.244 | 0.0094 | 0.123 | < 0.244 |
| O.O=[Te]([O-])[O-].[K+].[K+] [Potassium tellurite hydrate] | < 0.00244 | < 0.00244 | < 0.00244 | < 0.00244 | < 0.00244 | < 0.00244 | 0.01 | < 0.00244 | < 0.00244 | 0.01 | 0.01 |
| [O-][Cl+2]([O-])O [Sodium Chlorate] | 9.21 | 8.75 | 0.387 | 5.02 | 24.5 | 54.4 | 4.33 | 15.7 | 45.9 | 355 | < 0.244 |
| [Cl-].[Na+] [Sodium Chloride] | 699 | 708 | 603 | 660 | 708 | 718 | 622 | 707 | 671 | 708 | 545 |
| [O-][Cl+]O [Sodium Chlorite] | < 0.00244 | < 0.00244 | < 0.00244 | < 0.00244 | 0.0105 | < 0.00244 | 0.00287 | < 0.00244 | 0.00662 | > 5 | > 5 |
| O.O.O.O.O.O.O.O=[As]([O-])([O-])O.[Na+].[Na+] [Sodium arsenate dibasic heptahydrate] | < 0.244 | < 0.244 | < 0.244 | < 0.244 | < 0.244 | < 0.244 | 5.13 | < 0.244 | 0.874 | > 500 | > 500 |
| OCl [Sodium hypochlorite] | > 5 | > 5 | 2.28 | > 5 | > 5 | > 5 | 0.534 | > 5 | 3.32 | > 5 | > 5 |
| O=P[O-].[Na+] [Sodium hypophosphite monohydrate] | 354 | 451 | 146 | 380 | 354 | > 500 | 306 | 354 | > 500 | 354 | 171 |
| O=[Si](O)O [Sodium metasilicate] | < 0.244 | < 0.244 | < 0.244 | < 0.244 | < 0.244 | < 0.244 | < 0.244 | < 0.244 | < 0.244 | < 0.244 | < 0.244 |
| [Na+].[O]=[V](=[O])[O-] [Sodium metavanadate] | 0.0793 | 0.432 | 0.0997 | < 0.0244 | 3.26 | 13.4 | 6.94 | 2.34 | 8.62 | > 50 | > 50 |
| [Na+].[Na+].[O]=[Mo](=[O])([O-])[O-] [Sodium molybdate] | 20.3 | 2.62 | 3.39 | 337 | 369 | 354 | 214 | 162 | 231 | 354 | 262 |
| O=[N+]([O-])[O-].[Na+] [Sodium nitrate] | 275 | > 500 | 324 | 354 | 354 | 383 | > 500 | 354 | 400 | > 500 | > 500 |
| O=NO [Sodium nitrite] | 17.3 | 6.63 | 3.89 | 15.3 | 22.8 | 41.6 | 14.8 | 23 | 8.81 | > 50 | > 50 |
| [O-][Cl+3]([O-])([O-])O [Sodium perchlorate monohydrate] | 67.2 | 356 | 117 | 82 | 95 | 106 | 69.8 | 235 | 89.4 | 354 | 5.54 |
| [O-][I+3]([O-])([O-])O [Sodium periodate] | 5.52 | 2.35 | 1.56 | 0.326 | 0.813 | 2.35 | 0.146 | 27.4 | 0.772 | 0.101 | 0.0825 |
| O=P([O-])(O)O.[Na+] [Sodium phosphate monobasic monohydrate] | 50.2 | > 500 | 73.8 | 308 | 307 | 354 | 2.25 | 30.3 | 15.7 | 354 | 128 |
| OP(O)O [Sodium phosphite dibasic pentahydrate] | < 0.244 | < 0.244 | < 0.244 | 2.03 | 354 | 354 | 118 | < 0.244 | 309 | > 500 | 197 |
| O=P(O)(O)OP(=O)(O)O [Sodium pyrophosphate dibasic] | 29.4 | 0.848 | 0.226 | 1.78 | 36.1 | 25.4 | 4.34 | > 50 | 2.35 | 8.54 | 0.854 |
| O=[Se](=O)([O-])[O-].[Na+].[Na+] [Sodium selenate] | < 0.244 | < 0.244 | < 0.244 | 290 | 354 | 300 | 189 | < 0.244 | 62.5 | 251 | 163 |
